A short description of series [1]: Solubility in water and in water-ethanol mixtures. Format: physicochemical.
The nature of series [2]: Excitation and emission spectra of substrates and hydrolysis products (Table 1). It counts as physicochemical. The note with it: 10^-7 M in Tris buffer, pH 7.8.
The subject of series [3] is Leucine aminopeptidase. The note with it: known substrates, for comparison; medium with organic solvent; cited from earlier work.
In series [4] the target is T1, Pig pancreas trypsin (Sus scrofa, UniProt P00761). The note with it: for comparison purposes; cited from earlier work.
In series [5] the target is T1, Pig pancreas trypsin. The series is described as follows: Determination of trypsin, analytical characteristics. It counts as biochemical. As to the method:
Six calibration ranges containing a final enzyme concentration of 0-0.42-0.84-1.67-3.33-6.67 μg/ml were prepared. Each calibration curve was determined by linear regression. The mean standard deviation is 2.45×10^-3 ±0.003×10^-3 for the gradient and 4.80×10^-3 ±2.53×10^-3 for the intercept The linearity test is significant at the 5% threshold (W=0.245). The quantification limit, calculated by the ratio 3σb /a is 0.05 μg/ml. The repeatability, evaluated by the variation coefficient, is 9.4% at 0.42 μg/ml, 5.9% at 0.84 μg/ml and 1.3% at 6.67 μg/ml.

The target in series [6] is T1, Pig pancreas trypsin. The experiment in a line: Hydrolysis of substrate by trypsin, Michaelis kinetics. Format: biochemical. The method, then: Crystalline Z-Arg-ATC hydrochloride (Seratec): 10^-3 M solution in Tris buffer, pH 8.0+CACl2, 10 mM.
Pig pancreas trypsin (SIGMA T0134): 10^-3 M solution in Tris buffer, pH 8.0+CACl2, 10 mM.
Tris buffer: solution A: 0.2M Tris, i.e. 24.23 g/l+CaCl2, 40 mM, i.e. 5.88 g/l; solution B: 0.1M HCl.
This buffer is prepared by mixing 250 ml of solution A with 268 ml of solution B and by topping up to 1 liter with water.
Acetate buffer: solution A: 0.02M acetic acid; solution B: 0.02M sodium acetate.
This buffer is prepared by mixing volume by volume solutions A and B to obtain a buffer at pH 4.75.
Aqueous 1.17N perchloric acid solution (1/10 dilution of pure acid).
The following substrate concentration range was prepared in tubes: 0-0.2-0.5-1-2-5-10×10^-4 M (final concentration).
To each tube was added a concentration of 6.67 μg/ml of trypsin, everything being dissolved in the Tris buffer pH 8.0+CaCl2, 10 mM and at ambient temperature. The enzyme is added at time 0. After 2 minutes, 250 μl are removed from each tube and poured into tubes containing 250 μl of 1.17N perchloric acid and 500 μl of water. The tubes are centrifuged and then the solution is diluted to 1/250 in the acetate buffer. The same operation is repeated at 17 min. The fluorescence intensity is measured at 380/490nm. The difference of the intensities at 17 and 2 min constitutes the signal.
The corresponding ATC concentration is calculated compared with a calibration range from 5×10^-9 to 2×10^-7 M.
This was followed by the determination of Km, Vm, kcat and the ratio kcat/Km. The results obtained are given in table 6, which also gives for comparison purposes the values obtained with Z-L-Arg-AMC and Bz DL Arg-AMC and Bz -L-Arg-AMC.

The nature of series [7]: Excitation and emission spectra of ATC derivatives (Table 4). Format: physicochemical. The note with it: 10^-7 M, Z-Arg-ATC in 50 mM Tris pH 8, 10 mM CaCl2. As to the method:
The excitation and emission spectra of ATC and Z-Arg-ATC were plotted on the basis of 10^-7 M solutions in the 50 mM Tris buffer at pH 8 containing 10 mM of CaCl2. The maxima obtained are indicated in table 4 with the corresponding maxima of Leu-ATC.

Where [8] appears, read: water, read-out: Solubility in water.
The mark [9] stands for this setting: enzyme 0-6.67 μg/ml, linear regression.

Converted amounts (≈) assume the structure as drawn. “And” between values parts separate entries of the source, which are not always exact repeats. Equal values may be shown once. Where a name gives a salt, the structure may show the parent alone. Read-outs that look alike come from different tables or passages of the source.

Results on eight compounds are retold here after US5342970A, “Hydrosoluble coumarin derivatives, their preparation and their use as an enzyme substrate or for the preparation of such substrates” (priority 1991, dated 1994).

T1 sequence (P00761 9-231): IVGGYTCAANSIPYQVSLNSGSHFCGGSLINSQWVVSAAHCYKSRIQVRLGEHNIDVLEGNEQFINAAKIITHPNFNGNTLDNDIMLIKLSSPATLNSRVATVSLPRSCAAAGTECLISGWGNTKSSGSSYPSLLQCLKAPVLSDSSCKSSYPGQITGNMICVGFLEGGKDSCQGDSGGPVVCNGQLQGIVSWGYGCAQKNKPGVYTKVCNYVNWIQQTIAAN

What is called solubility is the dissolved amount per volume that the medium holds. Consider `COCCOCCOCc1cc(=O)oc2cc(O)ccc12` [Compound 10, 7-hydroxy-4-(2',5',8'-trioxanonyl)coumarin], for which the solubility in series [1] (water-ethanol 90:10, organic solvent or mixture, read-out: Solubility in the water-ethanol mixture (90:10)) turned out to be 7000 µg/mL (≈ 23.8 mM); in series [1] (setting [8]), 1000 µg/mL (≈ 3.4 mM).
Consider `COCCOCCOCc1cc(=O)oc2c3c4c(cc12)CCCN4CCC3` [Compound 7, 2,3,6,7-tetrahydro-9-(2',5',8'-trioxanonyl)-1H, 5H, 11H-(1)-benzopyrano-(6,7,8-ij)-quinolizinone-11], for which the solubility in series [1] (ethanol:water 30:70, organic solvent or mixture, read-out: Solubility in ethanol:water mixture (30:70)) is 3000 µg/mL (≈ 8.03 mM); in series [1] (setting [8]), 200 µg/mL (≈ 0.536 mM).
Regarding `N=C(N)NCCC[C@H](NC(=O)CNC(=O)CN)C(=O)Nc1ccc2c(CS(=O)(=O)O)cc(=O)oc2c1` [GlyGly Arg AMCS, reference compound], in series [2], the “Maximum excitation wavelength, substrate” value was 336 nm and the “Maximum fluorescence wavelength, substrate” value is on record as 409 nm.
What is called Km is the substrate concentration at which the rate is half of its maximum. Regarding `CC(C)C[C@H](N)C(=O)Nc1ccc2ccccc2c1` [Leu-βnaphthylamide], in series [3], the Km was 150 µM and the Vm is recorded as 5.5 μmole/mg Ez/min.
A word on the kcat: it is the maximal rate divided by the concentration of active sites. By kcat/Km is commonly meant the turnover number divided by the Michaelis constant. Consider `Cc1cc(=O)oc2cc(NC(=O)[C@H](CCCNC(=N)N)NC(=O)OCc3ccccc3)ccc12` [Z--L--Arg--AMC], for which, in series [4], the Km is 200 µM, the kcat was 0.89 s⁻¹ and the kcat/Km is 4500 M⁻¹ s⁻¹.
Regarding `Cc1cc(=O)oc2cc(NC(=O)[C@H](CCCNC(=N)N)NC(=O)c3ccccc3)ccc12` [Bz--L--Arg--AMC], in series [4], the Km was 110 µM, the kcat was 0.42 s⁻¹ and the kcat/Km is 3800 M⁻¹ s⁻¹.
For `COCCOCCOCc1cc(=O)oc2cc(NC(=O)[C@H](CCCNC(=N)N)NC(=O)OCc3ccccc3)ccc12` [Compound 14, N-carbobenzyloxy-L-arginyl-4-(2',5',8'-trioxanonyl)-7-coumarinylamide hydrochloride], the “repeatability (variation coefficient)” value in series [5] (at 0.42 μg/ml enzyme) turned out to be 9.4%; in series [5] (at 0.84 μg/ml enzyme), 5.9%; in series [5] (at 6.67 μg/ml enzyme), 1.3%. For the same compound, in series [5] (setting [9]), the “gradient of calibration curve” value is on record as 2.45×10^-3 ±0.003×10^-3. Further, the “intercept of calibration curve” value in series [5] (setting [9]) is 4.80×10^-3 ±2.53×10^-3. The quantification limit in series [5] (trypsin, ratio 3σb/a) stood at 0.05 µg/mL. Moreover, the “detection limit for trypsin compared with substrates derived from AMC” value in series [5] (words) was “of the same order of magnitude as that obtained with substrates derived from AMC”. In addition, in series [6] (Tris buffer pH 8.0 + CaCl2 10 mM, ambient temperature), the Vm was determined as 474 nmole/min/mg Ez. The ATC hydrolysis solution in series [6] (substrate 0.2×10^-4 M) came out at 0.224 µM/min; in series [6] (substrate 0.5×10^-4 M), 0.467 µM/min; in series [6] (substrate 1×10^-4 M), 1.03 µM/min; in series [6] (substrate 2×10^-4 M) it was 1.81 µM/min; in series [6] (substrate 5×10^-4 M) it was 2.36 µM/min; in series [6] (substrate 10×10^-4 M), 2.57 µM/min. Also, the ATC working solution is recorded as 3.36 nM in series [6] (substrate 0.2×10^-4 M); 7.00 nM in series [6] (substrate 0.5×10^-4 M); 15.4 nM in series [6] (substrate 1×10^-4 M); 27.1 nM in series [6] (substrate 2×10^-4 M); 35.4 nM in series [6] (substrate 5×10^-4 M); 38.6 nM in series [6] (substrate 10×10^-4 M). Also, the “IF(17)-IF(2)” value is on record as 3.7 in series [6] (substrate 0.2×10^-4 M); 7.7 in series [6] (substrate 0.5×10^-4 M); 16.9 in series [6] (substrate 1×10^-4 M); 29.8 in series [6] (substrate 2×10^-4 M); 38.9 in series [6] (substrate 5×10^-4 M); 42.4 in series [6] (substrate 10×10^-4 M). In addition, the “affinity and activity compared with Bz-DL-Arg-AMC” value in series [6] (words) is “comparable with Bz-DL-Arg-AMC”. In series [7], the “excitation maximum, substrate” value is 355 nm. The “fluorescence maximum, substrate” value in series [7] (hydrochloride) was 415 nm and 450 nm.
Consider `Cc1cc(=O)oc2cc(NC(=O)C(CCCNC(=N)N)NC(=O)c3ccccc3)ccc12` (racemic) [Bz--DL--Arg--AMC], for which, in series [4], the Km was 250 µM, the kcat is 0.20 s⁻¹ and the kcat/Km is 800 M⁻¹ s⁻¹.
